# Test results taken from ChEMBL document CHEMBL3885881, “DrugMatrix”.
# Organism: Rattus norvegicus
# Test: DrugMatrix - Regimen: Daily Repeat
# Format: toxicity, organism-based, Sprague-Dawley
# Parameters: regimen Daily Repeat, gender Male, age 6-8 weeks
# Conditions: in vivo, po, route oral GAVAGE, vehicle .5 % CMC; for ABSOLUTE BASOPHIL / ABSOLUTE EOSINOPHIL / ABSOLUTE LYMPHOCYTE / ABSOLUTE MONOCYTE / ABSOLUTE SEGMENTED NEUTROPHIL / BASOPHIL / ERYTHROCYTE COUNT / HEMATOCRIT / HEMOGLOBIN / LYMPHOCYTE / MEAN CORPUSCULAR HEMOGLOBIN / MEAN CORPUSCULAR HEMOGLOBIN CONCENTRATION / MEAN CORPUSCULAR VOLUME / NEUTROPHIL / NUCLEATED RED BLOOD CELLS / PLATELET COUNT: tissue Blood; for ALANINE AMINOTRANSFERASE / ALKALINE PHOSPHATASE / ASPARTATE AMINOTRANSFERASE / BLOOD UREA NITROGEN / CHOLESTEROL / CREATINE PHOSPHOKINASE / CREATININE / GLUCOSE / LACTATE DEHYDROGENASE / LIPASE / PHOSPHORUS / POTASSIUM / SODIUM / TOTAL BILIRUBIN / TOTAL PROTEIN / CARBON DIOXIDE: tissue Plasma
# [1] = 0.06 mg/kg, 120 h, dose level Low, time 5 day
# [2] = […], 72 h, dose 0.25 mg/Kg, dose level High, time 3 day
# [3] = […], 120 h, dose 0.25 mg/Kg, dose level High, time 5 day
smiles,measurement,setting,value
CC(=O)CC(c1ccccc1)c1c(O)c2ccccc2oc1=O (stereo not given) [WARFARIN],ABSOLUTE BASOPHIL,[1],0 CELLS/uL
same,ABSOLUTE EOSINOPHIL,[1],123.33 CELLS/uL
same,ABSOLUTE LYMPHOCYTE,[1],12690 CELLS/uL
same,ABSOLUTE MONOCYTE,[1],175.33 CELLS/uL
same,ABSOLUTE SEGMENTED NEUTROPHIL,[1],1111.33 CELLS/uL
same,BASOPHIL,[1],0%
same,ERYTHROCYTE COUNT,[1],5.59 x10E6/uL
same,HEMATOCRIT,[1],35.53%
same,HEMOGLOBIN,[1],13.5 G/DL
same,LYMPHOCYTE,[1],90%
same,MEAN CORPUSCULAR HEMOGLOBIN,[1],24.2 pg
same,MEAN CORPUSCULAR HEMOGLOBIN CONCENTRATION,[1],38 G/DL
same,MEAN CORPUSCULAR VOLUME,[1],63.67 fL
same,NEUTROPHIL,[1],8%
same,NUCLEATED RED BLOOD CELLS,[1],0 /100WBC
same,PLATELET COUNT,[1],1320.67 x10E3/uL
same,ALANINE AMINOTRANSFERASE,[1],47.33 u/L
same,ALKALINE PHOSPHATASE,[1],339.67 u/L
same,ASPARTATE AMINOTRANSFERASE,[1],76.33 u/L
same,BLOOD UREA NITROGEN,[1],16 mg/dL
same,CHOLESTEROL,[1],66.67 mg/dL
same,CREATINE PHOSPHOKINASE,[1],293.33 u/L
same,CREATININE,[1],0.14 mg/dL
same,GLUCOSE,[1],149 mg/dL
same,LACTATE DEHYDROGENASE,[1],203 u/L
same,LIPASE,[1],9.33 u/L
same,PHOSPHORUS,[1],13.2 mg/dL
same,POTASSIUM,[1],6.78 MEQ/L
same,SODIUM,[1],144.27 MEQ/L
same,TOTAL BILIRUBIN,[1],0.2 mg/dL
same,TOTAL PROTEIN,[1],6 G/DL
same,ABSOLUTE BASOPHIL,[2],0 CELLS/uL
same,ABSOLUTE EOSINOPHIL,[2],246.33 CELLS/uL
same,ABSOLUTE LYMPHOCYTE,[2],13716 CELLS/uL
same,ABSOLUTE MONOCYTE,[2],364 CELLS/uL
same,ABSOLUTE SEGMENTED NEUTROPHIL,[2],1007 CELLS/uL
same,BASOPHIL,[2],0%
same,ERYTHROCYTE COUNT,[2],5.82 x10E6/uL
same,HEMATOCRIT,[2],37.73%
same,HEMOGLOBIN,[2],14.07 G/DL
same,LYMPHOCYTE,[2],89.33%
same,MEAN CORPUSCULAR HEMOGLOBIN,[2],24.2 pg
same,MEAN CORPUSCULAR HEMOGLOBIN CONCENTRATION,[2],37.33 G/DL
same,MEAN CORPUSCULAR VOLUME,[2],64.87 fL
same,NEUTROPHIL,[2],6.67%
same,NUCLEATED RED BLOOD CELLS,[2],0 /100WBC
same,PLATELET COUNT,[2],1397.33 x10E3/uL
same,ALANINE AMINOTRANSFERASE,[2],57 u/L
same,ALKALINE PHOSPHATASE,[2],354 u/L
same,ASPARTATE AMINOTRANSFERASE,[2],82 u/L
same,BLOOD UREA NITROGEN,[2],15.33 mg/dL
same,CARBON DIOXIDE,[2],25.67 mmol/L
same,CHOLESTEROL,[2],86 mg/dL
same,CREATINE PHOSPHOKINASE,[2],467.67 u/L
same,CREATININE,[2],0.18 mg/dL
same,GLUCOSE,[2],156 mg/dL
same,LACTATE DEHYDROGENASE,[2],145 u/L
same,LIPASE,[2],10.67 u/L
same,PHOSPHORUS,[2],13.7 mg/dL
same,POTASSIUM,[2],6.91 MEQ/L
same,SODIUM,[2],145.27 MEQ/L
same,TOTAL BILIRUBIN,[2],0.23 mg/dL
same,TOTAL PROTEIN,[2],5.93 G/DL
same,ABSOLUTE BASOPHIL,[3],0 CELLS/uL
same,ABSOLUTE EOSINOPHIL,[3],86.67 CELLS/uL
same,ABSOLUTE LYMPHOCYTE,[3],13093.33 CELLS/uL
same,ABSOLUTE MONOCYTE,[3],240.67 CELLS/uL
same,ABSOLUTE SEGMENTED NEUTROPHIL,[3],779.33 CELLS/uL
same,BASOPHIL,[3],0%
same,ERYTHROCYTE COUNT,[3],5.78 x10E6/uL
same,HEMATOCRIT,[3],36.23%
same,HEMOGLOBIN,[3],13.7 G/DL
same,LYMPHOCYTE,[3],92%
same,MEAN CORPUSCULAR HEMOGLOBIN,[3],23.7 pg
same,MEAN CORPUSCULAR HEMOGLOBIN CONCENTRATION,[3],37.87 G/DL
same,MEAN CORPUSCULAR VOLUME,[3],62.63 fL
same,NEUTROPHIL,[3],5.67%
same,NUCLEATED RED BLOOD CELLS,[3],0 /100WBC
same,PLATELET COUNT,[3],1328.33 x10E3/uL
same,ALANINE AMINOTRANSFERASE,[3],45.33 u/L
same,ALKALINE PHOSPHATASE,[3],285 u/L
same,ASPARTATE AMINOTRANSFERASE,[3],79.67 u/L
same,BLOOD UREA NITROGEN,[3],17.33 mg/dL
same,CARBON DIOXIDE,[3],26.67 mmol/L
same,CHOLESTEROL,[3],69.67 mg/dL
same,CREATINE PHOSPHOKINASE,[3],518.33 u/L
same,CREATININE,[3],0.2 mg/dL
same,GLUCOSE,[3],156.33 mg/dL
same,LACTATE DEHYDROGENASE,[3],92.67 u/L
same,LIPASE,[3],8.67 u/L
same,PHOSPHORUS,[3],13.27 mg/dL
same,POTASSIUM,[3],6.55 MEQ/L
same,SODIUM,[3],147.93 MEQ/L
same,TOTAL BILIRUBIN,[3],0.17 mg/dL
same,TOTAL PROTEIN,[3],6.33 G/DL
